{
  "source": "patent US9808434B2",
  "about": "“Compound for treating cancer and diabetes” (CITY OF HOPE, priority 2011, dated 2017)",
  "key": {"3T3-L1 cells": {"tested_on": "3T3-L1 cells", "experiment": "Adipocyte differentiation, Oil Red O staining", "type": "cell-based, mouse", "conditions": "preadipocytes 7 days in differentiating media (DM) + compound", "protocol": "Two-day post-confluent 3T3-L1 preadipocyte cells were allowed to differentiate for 7 days in the presence of nothing, DM only, DM+ a test compound (COH-SR1, COH-SR2, COH-SR3, COH-SR4, COH-SR7, LR23 or LR59), or DM+ a positive control (TSA, C75, or Apicidin).\n3T3-L1 preadipocytes cells were treated with differentiating media (DM) with COH-SR4 (1 μM, 3 μM, or 5 μM) or without for 7 days. […] As used in FIG. 9C, U=undifferentiated, D=differentiated with cocktail media."}, "[1]": {"tested_on": "mouse C2C12, HepG2, and 3T3-L1 cells", "experiment": "Oxygen consumption rate in myotubes, liver cells, adipocytes", "type": "cell-based", "protocol": "Oxygen consumption rate (OCR), a measure of OxPhos, and extracellular acidification rate (ECAR), a measure of lactate production by glycolysis, were measured using a Seahorse Xf^e96 Flux Analyzers (Seahorse Biosciences, North Billerica, Mass.). Cells were seeded in DMEM media in Seahorse 96-well tissue culture plates at a density of 5×10^3 cells/well and allowed to adhere for 24 h. Prior to the assay, the media was changed to unbuffered DMEM containing 25 mM glucose, 1 mM pyruvate and 1 mM glutamine, with 0.2% fatty acid/endotoxin-free BSA (w/v) (pH 7.4) and the cells were equilibrated for 30 min at 37° C. Test compounds were injected during the assay and OCR and ECAR were measured using 2-3 min measurement periods. Similar sets of experiments were performed in the presence of the mitochondria recoupler agent 6-KCH or the mitochondrial permeability transition (MPT) pore blocker CSA, where each compound was injected into the assay media prior to COH-SR4 or FCCP injection. In separate experiments with A2058 and A2058 p° cells, a modified Mitostress test was performed accordingly per Seahorse protocols (89, 90). […] OCR was measured throughout the different injections of the stressors and test compounds (indicated by arrows in the figures). […]"}, "A2058 human melanoma": {"tested_on": "A2058 human melanoma", "type": "in vivo", "protocol": "For melanoma studies, C57B mice (for syngeneic B16-F0 mouse melanoma model) and Hsd: Athymic nude nu/nu mice (for A2058 human melanoma mouse xenografts model), were obtained from Harlan, Indianapolis, Ind. All animal experiments were carried out in accordance with a protocol approved by the Institutional Animal Care and Use Committee (IACUC). […] All animals were injected with 2×10^6 melanoma cells suspensions in 100 μL of PBS, subcutaneously into one flank of each mouse. Treatment was started 10 days after the implantation to see palpable tumor growth. […] Control groups were treated with 200 μL corn oil by oral gavage alternate days. Animals were examined daily for signs of tumor growth. Tumors were measured in two dimensions using calipers. Photographs of animals were taken at day 1, day 10, day 14, day 18, day 20, day 30, and day 51 after subcutaneous injection, are shown for all groups. Photographs of tumors were also taken at day 20 (for syngeneic model), and at day 51 (for xenograft model).\nC57B mice (for syngeneic B16-F0 mouse melanoma model) and Hsd: Athymic nude nu/nu mice (for A2058 human melanoma mouse xenografts model), were used for testing the impact of oral administration of COH-SR4 on melanoma progression in vivo models. […] All animals were injected with 2×10^6 melanoma cells suspensions in 100 μL of PBS, subcutaneously into one flank of each mouse. Treatment was started 10 days after the implantation of melanoma cells. […] Control groups were treated with 200 μL corn oil by oral gavage alternate day. Animals were examined daily for signs of tumor growth and body weights were recorded. […] Animals were examined daily for signs of tumor growth. Tumors were measured in two dimensions using calipers. […] Weights and photographs of tumors were also taken at day 20 (for syngeneic model), and at day 51 (for xenograft model) (FIG. 70B). […] Tumors were measured in two dimensions using calipers and time-course analysis of tumor regression was performed during the study. […]"}},
  "note": "Entries after “also recorded” stand apart in the source; their conditions may differ.",
  "data": [
    {"smiles": "O=C(Nc1cc(Cl)cc(Cl)c1)Nc1cc(Cl)cc(Cl)c1", "note": "[COH-SR4, 1,3-bis(3,5-dichlorophenyl) urea]", "values": [
      {"measurement": "differentiation and accumulation of lipid droplets (Oil Red O staining)", "setting": "3T3-L1 cells", "value": "dose-dependently inhibited differentiation and accumulation of lipid droplets; also recorded: prevented accumulation of fat droplets"},
      {"measurement": "OCR", "setting": "[1]", "value": "dose- and time dependently increased the OCR"},
      {"measurement": "tumor regression and toxicity at higher dosage", "setting": "A2058 human melanoma; 20 mg/kg b.w.", "value": "no further improvement in tumor regression and no toxicity was observed"},
      {"measurement": "tumor weight", "setting": "A2058 human melanoma; day 51, control 1.91±0.3 g", "value": "0.7 ± 0.1", "unit": "g"},
      {"measurement": "survival (still alive)", "setting": "A2058 human melanoma; vehicle censored by day 51±3", "value": "≥ 88", "unit": "days"}
    ]}
  ]
}
